Test results: US10138227B2, “Heteroaryl substituted pyridines and methods of use” (AbbVie S.à.r.l., priority 2016, dated 2018)

Molecular target: T1, CFTR ΔF508 mutant (Homo sapiens, UniProt P13569, DEL508-508)
T1 construct: expressed in transfected cells; host or cells: CFBE41o- cells transduced with adenoviral vectors
Assay: YFP-halide influx assay for the CFTR-ΔF508 mutation
Format: cell-based
Settings: CFBE41o- cells expressing CFTR ΔF508 and YFP reporter, forskolin 10.67 μM; for EC50: (1-F/F0) vs concentration
From the text: The YFP halide influx assay measured the functionality of the cystic fibrosis Transmembrane Conductance regulator (CFTR) channels in the cystic fibrosis bronchial epithelium cell line CFBE41o-. The assay was used to evaluate the capacity of compounds to increase the open probability of existing CFTR channels in the membrane. It makes use of the observation that the yellow fluorescent protein (YFP) variant YFP H148Q, I152L, F47L has its fluorescence substantially quenched by halide ions like Cl^− and I^− (Galietta, L. J. V., Haggie, P. M., Verkman, A. S., 2001. Green fluorescent protein-based halide indicators with improved chloride and iodide affinities. FEBS Lett. 499, 220-224. doi:10.1016/S0014-5793(01)02561-3; Nagai, T., Ibata, K., Park, E. S., Kubota, M., Mikoshiba, K., Miyawaki, A., 2002. A variant of yellow fluorescent protein with fast and efficient maturation for cell-biological applications. Nat. Biotechnol. 20, 87-90. doi:10.1038/nbt0102-87).
For this purpose, CFBE410-cells were seeded in 384 well plates (3000 CFBE cells/well). One day after seeding, the CFBE cells were transduced with adenoviral vectors that direct the expression of the CFTR ΔF508 mutant and of the YFP reporter. Cells were incubated at 27° C., 5% CO2 for 24 hours so as to allow for the proper folding and migration to the membrane of the CFTR channel or treated with a CFTR modulator during 24 hours at 37° C.
The I-induced quenching of fluorescence was recorded on an immediately after injection of iodide for 2 minutes on an FDSS/μCell (Hamamatsu). The capacity of a compound to increase the channel opening was directly correlated with the decrease in fluorescence, and was expressed as (1-(fluorescence after 36 seconds (F)/fluorescence before injection (F0))) and an EC50 was derived from a (1-F/F0) vs compound concentration plot.

T1 sequence (P13569 with tags, fused parts or gaps DEL508-508): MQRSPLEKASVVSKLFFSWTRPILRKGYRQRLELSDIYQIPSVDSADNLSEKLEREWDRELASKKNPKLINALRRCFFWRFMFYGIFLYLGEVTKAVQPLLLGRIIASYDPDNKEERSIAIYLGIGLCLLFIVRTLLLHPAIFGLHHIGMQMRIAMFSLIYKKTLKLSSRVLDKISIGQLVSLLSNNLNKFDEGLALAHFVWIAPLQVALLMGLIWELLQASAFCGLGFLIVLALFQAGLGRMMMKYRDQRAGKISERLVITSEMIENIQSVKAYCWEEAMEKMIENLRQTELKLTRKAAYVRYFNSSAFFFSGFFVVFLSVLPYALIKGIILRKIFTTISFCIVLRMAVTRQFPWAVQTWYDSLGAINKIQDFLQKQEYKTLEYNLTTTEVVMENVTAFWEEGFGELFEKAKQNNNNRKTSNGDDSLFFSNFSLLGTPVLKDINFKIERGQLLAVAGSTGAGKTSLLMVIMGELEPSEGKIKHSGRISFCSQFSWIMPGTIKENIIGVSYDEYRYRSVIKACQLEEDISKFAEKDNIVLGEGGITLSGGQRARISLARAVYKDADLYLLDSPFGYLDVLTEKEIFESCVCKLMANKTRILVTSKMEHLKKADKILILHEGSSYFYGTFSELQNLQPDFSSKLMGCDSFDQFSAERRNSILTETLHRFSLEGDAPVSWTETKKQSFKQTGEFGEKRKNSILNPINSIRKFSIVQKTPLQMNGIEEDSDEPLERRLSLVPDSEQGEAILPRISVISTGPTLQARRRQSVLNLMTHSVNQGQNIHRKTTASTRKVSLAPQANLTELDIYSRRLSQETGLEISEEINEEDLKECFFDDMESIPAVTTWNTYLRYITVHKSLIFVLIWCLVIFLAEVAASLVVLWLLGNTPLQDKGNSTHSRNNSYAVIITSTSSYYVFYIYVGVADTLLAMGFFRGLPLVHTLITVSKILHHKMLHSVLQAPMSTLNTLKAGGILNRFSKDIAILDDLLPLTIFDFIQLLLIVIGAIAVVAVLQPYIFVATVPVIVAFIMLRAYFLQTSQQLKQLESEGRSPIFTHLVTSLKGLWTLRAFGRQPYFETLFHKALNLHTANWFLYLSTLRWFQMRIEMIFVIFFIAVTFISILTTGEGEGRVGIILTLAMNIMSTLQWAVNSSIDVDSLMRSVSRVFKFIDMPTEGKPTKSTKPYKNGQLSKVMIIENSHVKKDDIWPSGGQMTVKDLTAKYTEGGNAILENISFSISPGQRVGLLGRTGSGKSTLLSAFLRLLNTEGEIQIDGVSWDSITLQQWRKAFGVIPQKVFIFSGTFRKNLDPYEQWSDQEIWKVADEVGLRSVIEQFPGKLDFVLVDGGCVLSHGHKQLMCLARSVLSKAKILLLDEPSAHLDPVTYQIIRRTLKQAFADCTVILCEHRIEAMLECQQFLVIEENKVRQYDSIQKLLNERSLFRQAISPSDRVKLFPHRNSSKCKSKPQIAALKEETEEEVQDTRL

Row | Compound | % Activation [%] | EC50 [nM]
1 | Nc1cc(S(=O)(=O)c2ccc(OC(F)(F)F)cc2)c(Cl)nc1-c1nnc(CO)o1 [Compound 64, (5-{3-amino-6-chloro-5-[4-(trifluoromethoxy)benzene-1-sulfonyl]pyridin-2-yl}-1,3,4-oxadiazol-2-yl)methanol] | 122 | < 0.46
2 | Nc1c(-c2nnc(CO)o2)ncc(S(=O)(=O)c2ccc(OC(F)(F)F)cc2)c1Br [Compound 66, (5-{3-amino-4-bromo-5-[4-(trifluoromethoxy)benzene-1-sulfonyl]pyridin-2-yl}-1,3,4-oxadiazol-2-yl)methanol] | <1.18 | –
3 | Nc1cc(S(=O)(=O)c2ccc(OC(F)(F)F)cc2)cnc1-c1nnco1 [Compound 6, 2-(1,3,4-oxadiazol-2-yl)-5-[4-(trifluoromethoxy)benzene-1-sulfonyl]pyridin-3-amine] | 86.03 | 78.1
4 | Nc1cc(S(=O)(=O)c2ccc(C(F)(F)F)cc2)cnc1-c1nnc(CO)o1 [Compound 7, (5-{3-amino-5-[4-(trifluoromethyl)benzene-1-sulfonyl]pyridin-2-yl}-1,3,4-oxadiazol-2-yl)methanol] | 109.69 | 5.8
5 | Nc1cc(S(=O)(=O)c2ccc(OC(F)(F)F)cc2)cnc1-c1nnc(COc2cccnc2)o1 [Compound 38, 2-(5-{[(pyridin-3-yl)oxy]methyl}-1,3,4-oxadiazol-2-yl)-5-[4-(trifluoromethoxy)benzene-1-sulfonyl]pyridin-3-amine] | 109.05 | 224
6 | COCc1nnc(-c2ncc(S(=O)(=O)c3ccc(OC(F)(F)F)cc3)cc2N)s1 [Compound 26, 2-[5-(methoxymethyl)-1,3,4-thiadiazol-2-yl]-5-[4-(trifluoromethoxy)benzene-1-sulfonyl]pyridin-3-amine] | 101.69 | 3.33
7 | Nc1cc(S(=O)(=O)c2ccc(OC(F)(F)F)cc2)cnc1-c1nnc(COc2cccnc2)s1 [Compound 27, 2-(5-{[(pyridin-3-yl)oxy]methyl}-1,3,4-thiadiazol-2-yl)-5-[4-(trifluoromethoxy)benzene-1-sulfonyl]pyridin-3-amine] | 96.45 | 151
8 | NC(=O)c1nnc(-c2ncc(S(=O)(=O)c3ccc(OC(F)(F)F)cc3)cc2N)o1 [Compound 8, 5-{3-amino-5-[4-(trifluoromethoxy)benzene-1-sulfonyl]pyridin-2-yl}-1,3,4-oxadiazole-2-carboxamide] | 93.73 | 300
9 | Nc1cc(S(=O)(=O)c2cccc(OC(F)(F)F)c2)cnc1-c1nnc(CO)o1 [Compound 58, (5-{3-amino-5-[3-(trifluoromethoxy)benzene-1-sulfonyl]pyridin-2-yl}-1,3,4-oxadiazol-2-yl)methanol] | 104.91 | 3.51
10 | CO[C@H](C)c1nnc(-c2ncc(S(=O)(=O)c3ccc(OC(F)(F)F)cc3)cc2N)s1 [Compound 21, 2-{5-[(1R)-1-methoxyethyl]-1,3,4-thiadiazol-2-yl}-5-[4-(trifluoromethoxy)benzene-1-sulfonyl]pyridin-3-amine] | 109.42 | 8.54
11 | Nc1cc(S(=O)(=O)c2ccc(OC(F)(F)F)cc2)cnc1-c1nnc(COc2ccccc2)o1 [Compound 13, 2-[5-(phenoxymethyl)-1,3,4-oxadiazol-2-yl]-5-[4-(trifluoromethoxy)benzene-1-sulfonyl]pyridin-3-amine] | 100.57 | 327
12 | CO[C@@H](C)c1nnc(-c2ncc(S(=O)(=O)c3ccc(OC(F)(F)F)cc3)cc2N)o1 [Compound 35, 2-{5-[(1S)-1-methoxyethyl]-1,3,4-oxadiazol-2-yl}-5-[4-(trifluoromethoxy)benzene-1-sulfonyl]pyridin-3-amine] | 98.52 | 20.8
13 | COC(C)c1nnc(-c2ncc(S(=O)(=O)c3ccc(OC(F)(F)F)cc3)cc2N)s1 (centres unmarked) [Compound 22, 2-[5-(1-methoxyethyl)-1,3,4-thiadiazol-2-yl]-5-[4-(trifluoromethoxy)benzene-1-sulfonyl]pyridin-3-amine] | 112.9 | 15.2
14 | CO[C@@H](C)c1nnc(-c2ncc(S(=O)(=O)c3ccc(OC(F)(F)F)cc3)cc2N)s1 [Compound 23, 2-{5-[(1S)-1-methoxyethyl]-1,3,4-thiadiazol-2-yl}-5-[4-(trifluoromethoxy)benzene-1-sulfonyl]pyridin-3-amine] | 100.92 | 37.1
15 | Nc1cc(S(=O)(=O)c2ccc(OC(F)(F)F)cc2)cnc1-c1nnc(COC2CCOC2)s1 (centres unmarked) [Compound 29, 2-(5-{[(oxolan-3-yl)oxy]methyl}-1,3,4-thiadiazol-2-yl)-5-[4-(trifluoromethoxy)benzene-1-sulfonyl]pyridin-3-amine] | 102.9 | 16
16 | CC(C)c1ccccc1S(=O)(=O)c1cnc(-c2nnc(CO)o2)c(N)c1 [Compound 65, (5-{3-amino-5-[2-(propan-2-yl)benzene-1-sulfonyl]pyridin-2-yl}-1,3,4-oxadiazol-2-yl)methanol] | 106.55 | < 1.05
17 | CC(C)(C)c1noc(-c2ncc(S(=O)(=O)c3ccc(OC(F)(F)F)cc3)cc2N)n1 [Compound 54, 2-(3-tert-butyl-1,2,4-oxadiazol-5-yl)-5-[4-(trifluoromethoxy)benzene-1-sulfonyl]pyridin-3-amine] | 12.02 | > 4990
18 | Nc1cc(S(=O)(=O)c2ccc(OC(F)(F)F)cc2)cnc1-c1nnc(COC2CCCC2)o1 [Compound 14, 2-{5-[(cyclopentyloxy)methyl]-1,3,4-oxadiazol-2-yl}-5-[4-(trifluoromethoxy)benzene-1-sulfonyl]pyridin-3-amine] | 116.8 | 67.9
19 | CC(O)c1nnc(-c2ncc(S(=O)(=O)c3ccc(OC(F)(F)F)cc3)cc2N)o1 (centres unmarked) [Compound 42, 1-(5-{3-amino-5-[4-(trifluoromethoxy)benzene-1-sulfonyl]pyridin-2-yl}-1,3,4-oxadiazol-2-yl)ethan-1-ol] | 109.65 | 1.57
20 | Nc1cc(S(=O)(=O)c2ccc(OC(F)(F)F)cc2)cnc1-c1nnc(COC(F)(F)F)o1 [Compound 15, 5-[4-(trifluoromethoxy)benzene-1-sulfonyl]-2-{5-[(trifluoromethoxy)methyl]-1,3,4-oxadiazol-2-yl}pyridin-3-amine] | 113.65 | 6.94
21 | Nc1cc(S(=O)(=O)c2ccc(OC(F)(F)F)cc2)cnc1-c1nnc(COC(F)F)o1 [Compound 39, 2-{5-[(difluoromethoxy)methyl]-1,3,4-oxadiazol-2-yl}-5-[4-(trifluoromethoxy)benzene-1-sulfonyl]pyridin-3-amine] | 119.45 | 9.88
22 | CCOCc1nnc(-c2ncc(S(=O)(=O)c3ccc(OC(F)(F)F)cc3)cc2N)s1 [Compound 25, 2-[5-(ethoxymethyl)-1,3,4-thiadiazol-2-yl]-5-[4-(trifluoromethoxy)benzene-1-sulfonyl]pyridin-3-amine] | 104.42 | 4.4
23 | Nc1cc(S(=O)(=O)c2ccc(F)cc2)cnc1-c1nnc(CO)o1 [Compound 9, {5-[3-amino-5-(4-fluorobenzene-1-sulfonyl)pyridin-2-yl]-1,3,4-oxadiazol-2-yl}methanol] | 104.65 | 96.7
24 | Nc1cc(S(=O)(=O)c2ccc(OC(F)(F)F)cc2)cnc1-c1nnc(COCC2CC2)s1 [Compound 24, 2-{5-[(cyclopropylmethoxy)methyl]-1,3,4-thiadiazol-2-yl}-5-[4-(trifluoromethoxy)benzene-1-sulfonyl]pyridin-3-amine] | 100.82 | 13.7
25 | Nc1cc(S(=O)(=O)c2ccc(OC(F)(F)F)cc2)cnc1-c1nc(COc2ccc(F)cc2)no1 [Compound 49, 2-{3-[(4-fluorophenoxy)methyl]-1,2,4-oxadiazol-5-yl}-5-[4-(trifluoromethoxy)benzene-1-sulfonyl]pyridin-3-amine] | 29.2 | > 3320
26 | CO[C@@H](c1ccccc1)c1nnc(-c2ncc(S(=O)(=O)c3ccc(OC(F)(F)F)cc3)cc2N)o1 [Compound 11, 2-{5-[(S)-methoxy(phenyl)methyl]-1,3,4-oxadiazol-2-yl}-5-[4-(trifluoromethoxy)benzene-1-sulfonyl]pyridin-3-amine] | 109.82 | 35.1
27 | Nc1cc(S(=O)(=O)c2ccc(OC(F)(F)F)cc2)cnc1-c1nnc(C[C@H]2CCCO2)s1 [Compound 32, 2-(5-{[(2R)-oxolan-2-yl]methyl}-1,3,4-thiadiazol-2-yl)-5-[4-(trifluoromethoxy)benzene-1-sulfonyl]pyridin-3-amine] | 105.02 | 36.6
